According to US5605703A, “Liposomes encapsulating doxorubicin” (priority 1993, dated 1997):
“Also recorded” adds a separate entry of the source.

What was measured:
[1] = Survival of healthy BALB/C rats after i.p. administration; conditions: rat, in vivo, ip, 18 mg/kg, during the second week
Protocol: (§1) As in Example 1, VET liposomes of composition PL:PG:CHOL:DXR (50:50:50:15) and chroman 6 (7.5 mg) were prepared.
Inoculation by intraperitoneal route. Healthy BALB/C rats were treated intraperitoneally with said preparation, and the survival curves compared (FIG. 4) with the administration of free drug at the same dose, 18 mg/kg. In the experiment there was incorporated as a control a preparation of liposomes without drug, of identical characteristics and at the same lipidic concentration which would correspond to the liposomes with DXR.

[2] = Survival of healthy BALB/C rats after i.v. administration; conditions: rat, in vivo, iv, 16 mg/kg, during the second week
Protocol: as §1
Inoculation intravenously. Healthy BALB/C rats were treated intravenously with the preparation of L-DXR described and the survival curves compared (FIG. 5) with the administration of free drug of the same dose, 16 mg/kg. In the experiment there was incorporated as a control a preparation of liposomes without drug, of identical characteristics and at the same lipidic concentration which would correspond to the liposomes with DXR.

animals = conditions: literature; cited from earlier work
[3] = Encapsulation of DXR in liposomes (Sephadex G-50M); format: physicochemical; conditions: VET liposomes PL:PG:CHOL:DXR (50:50:50:15), anti-oxidant varied
Protocol: A chloroform solution was prepared containing the selected lipids (table II) and 7.5 mg. of the chroman 6 in a round-bottomed flask. Afterward proceeding to the elimination of the organic solvent by means of roto-evaporation, additionally the traces of solvent were eliminated by passage of N2 or by lyophilization. The lipidic film thus obtained was hydrated, with 3 ml of NaCl solution at 0.9% containing DXR, by agitation in a vibromixer at intervals of 30 sec., followed by resting in a bath maintained at 60° C. for the same amount of time and an effective agitation up to 10 min. Thus a liposomal dispersion was obtained containing preferably multilamelar vesicles (MLVs). The liposomal solution was sonicated by ultrasonic irradiation by means of a titanium probe until a change in the turbidity was observed. The protocol of sonication was carried out in relays of 2 min. of sonication and one minute resting under atmosphere of N2 in an ice water bath. In order to eliminate the particles of titanium produced during the sonication, it was centrifuged for 20 min. at 3000 rpm. The liposomal suspension thus obtained contained small unilamelar liposomes (SUVs).
Alternatively, the suspension of multilamelar liposomes obtained as described was submitted to extrusion through polycarbonate filters of 0.4 and 0.2 μm in diameter of pore subsequently, obtaining liposomes designated VET.
The determination of the percentage of encapsulation of DXR was done by chromatographic separation of a portion of the liposomal suspension, by means of Sephadex G-50M utilizing NaCl 0.9% as eluent.
Proceeding in a manner analogous to that described in EXAMPLE 2 to obtain VET liposomes utilizing a ratio by weight of PL:PG:CHOL:DXR of 50:50:50:15 and varying the anti-oxidant agent employed. The results obtained show (Table III) that no appreciable differences exist in the percentages of encapsulation when different inhibitors of the lipidic peroxidation were utilized.

[4] = system: lipid peroxidation in rat liver microsomes (NADPH); assay: Inhibition of NADPH-induced (enzymatic) lipid peroxidation in rat liver microsomes, TBARS test; format: biochemical, Sprague-Dawley male rat; conditions: for IC50 / inhibition of lipid peroxidation, NADPH (in words): rat liver microsomes; for IC50: 0.1 mM NADPH, one hour at 37° C., read-out: IC50 TBARS production, NADPH
Protocol: (§2) Incubations. Suspension of Sprague-Dawley male rat liver microsomes in Krebs-Ringer (KRP) phosphates buffer, were prepared in accordance with the method of Fraga et al.: Free Radical Biol. Med. (1988) 4, 155-161. For the experiences of lipidic peroxidation induced enzymatically, microsomal protein (2 mg) in 1 ml of KRP buffer was incubated for one hour at 37° C. in the presence of 0.1 mM NADPH and 2 μl of DMSO containing the compound to be evaluated at the appropriate concentration. In the experiments where the incubations were prolonged up to three hours, every hour 0.1 ml of NADPH 2 mM was added to the incubation medium. For the experiments of lipid peroxidation induced chemically, 2 mg. of microsomal protein in 1 ml of KRP buffer were incubated for 30 min. at 37° C. in the presence of FeSO4 50/μM, ascorbic acid 0.5 mM and 2 μl of DMSO containing the compound to be evaluated at the appropriate concentration. In all cases, the incubations were arrested by addition of 0.2 ml of BHT at 4%.
(§3) TBARS test. […]. (1988) 4, 155-161 (herein incorporated by reference). Briefly, 0.5 ml of dodecyl sodium sulphate at 3% was added to proportions of 0.5 ml of the microsomal incubations. After mixing them, 2 ml of HC1 0.1 N, 0.3 ml of phosphotungstic acid and 1 ml of 2-thiobarbituric acid were added. The mixture was kept 30 min. at 100° C., and the TBARS were extracted with 3 ml of 1-butanol. After centrifugation, the fluorescence of the butanol phase was determined exciting at 515 nm and reading at 555 nm. The values obtained were expressed as nanomoles of TBARS (malondialdehyde equivalents). The standards of malondialdehyde were prepared from 1,1,3,3-tetramethoxypropane. The experiments were performed in triplicate. The values of […] were determined by representation of the percentage of inhibition vs. log [I], using at least five different concentrations. The values of the percentages of inhibition were referred to the determination carried out in presence of DMSO (2 μl).
(§4) In Table I the results of the inhibition of the lipidic peroxidation shown by several 2.2-dimethylchromans and chromans, fluorated or not, in incubations of rat liver microsomes induced by NADPH or stimulated by Fe-ascorbate, are shown, expressed as values of […] for the inhibition of the production of TBARS.

[5] = system: lipid peroxidation in rat liver microsomes (Fe-ascorbate); assay: Inhibition of Fe-ascorbate stimulated (chemical) lipid peroxidation in rat liver microsomes, TBARS test; format: biochemical, Sprague-Dawley male rat; conditions: for percentage of inhibition of TBARS production, Fe-ascorbate: at a 0.5 mM concentration; for inhibition of lipid peroxidation, Fe-ascorbate (in words) / IC50: rat liver microsomes; for effect with Fe-ascorbate compared with the tests depending on NADPH: Fe-ascorbate vs. NADPH; for IC50: FeSO4, ascorbic acid 0.5 mM, 30 min. at 37° C., read-out: IC50 TBARS production, Fe-ascorbate
Protocol: as §2, §3, §4

rat liver microsomes = format: in vitro ADME, Sprague-Dawley male rat
[6] = system: lipid peroxidation in rat liver microsomes (NADPH); assay: Persistence of the inhibition of lipid peroxidation over three hours in rat liver microsomes with NADPH; format: biochemical, Sprague-Dawley male rat; conditions: compounds 5, 6, 8, 9 at 15, 1, 6, 5 μM
Protocol: FIG. 1 illustrates the formulas of the chromenes (1-4), chromans (5-9) and compound of reference, BHT, (10) studied as inhibitors of the lipidic peroxidation. […] The values shown are the average +/-SD of sextuplicate tieterminations that were performed. The difference between consecutive hours are marked by asterisks: * P<0.001, ** P<0.005.
as §2
TBARS test. When the incubations were completed, the lipid peroxidation was evaluated by means of the production of substances which react with thiobarbituric acid (TBARS) as Fraga et al described.: Free Radical Biol. Meal. (1988) 4, 155-161 (herein incorporated by reference). Briefly, 0.5 ml of dodecyl sodium sulphate at 3% was added to proportions of 0.5 ml of the microsomal incubations. […] After centrifugation, the fluorescence of the butanol phase was determined exciting at 515 nm and reading at 555 nm. The values obtained were expressed as nanomoles of TBARS (malondialdehyde equivalents). […] The values of […] were determined by representation of the percentage of inhibition vs. log [I], using at least five different concentrations. […]

| Compound | % encapsulation (Table III) [3] | IC50 [4] | IC50 [5] | mortality [1] | mortality [2] | toxicity in animals (in words) (animals) | percentage of inhibition of TBARS production, Fe-ascorbate [5] | inhibition of lipid peroxidation, Fe-ascorbate (in words) [5] | effect with Fe-ascorbate compared with the tests depending on NADPH [5] | metabolite detected (rat liver microsomes) | inhibition of lipid peroxidation, NADPH (in words) [4] | persistence of the inhibiting activity [6] | inhibiting activity compared with another compound, NADPH [4] | inhibiting activity compared with another compound, Fe-ascorbate [5] |
| --- | --- | --- | --- | --- | --- | --- | --- | --- | --- | --- | --- | --- | --- | --- |
| COc1cccc2c1C(=O)c1c(O)c3c(c(O)c1C2=O)C[C@@](O)(C(=O)CO)C[C@@H]3O[C@H]1C[C@H](N)[C@H](O)[C@H](C)O1 [F-DXR] | – | – | – | 100% | 100% | cardiomyopathy | – | – | – | – | – | – | – | – |
| COc1cc2c(cc1OC)OC(C)(C)C=C2 [compound 1] | 89% | 11.4 µM | – | – | – | – | 35% | inactive | – | – | – | – | – | – |
| COc1cc2c(cc1O)C=CC(C)(C)O2 [compound 2] | 85% | 1.4 µM | 3.8 µM | – | – | – | – | potent inhibiting effect | six times smaller | – | – | – | – | – |
| CC1(C)C=Cc2cc(O)c(OCC(F)(F)F)cc2O1 [compound 4] | 84% | 3.7 µM | 6 µM | – | – | – | – | – | – | detection as a metabolite in the incubations with NADPH | the greatest inhibiting activity | – | – | – |
| Cc1cc(C(C)(C)C)c(O)c(C(C)(C)C)c1 [compound 10, reference compound] | – | 0.8 µM | 2.7 µM | – | – | – | – | – | A similar relation | – | – | – | – | – |

Continued, in another order:

| % encapsulation (Table III) [3] | IC50 [4] | IC50 [5] | Compound | mortality [1] | mortality [2] | toxicity in animals (in words) (animals) | percentage of inhibition of TBARS production, Fe-ascorbate [5] | inhibition of lipid peroxidation, Fe-ascorbate (in words) [5] | effect with Fe-ascorbate compared with the tests depending on NADPH [5] | metabolite detected (rat liver microsomes) | inhibition of lipid peroxidation, NADPH (in words) [4] | persistence of the inhibiting activity [6] | inhibiting activity compared with another compound, NADPH [4] | inhibiting activity compared with another compound, Fe-ascorbate [5] |
| --- | --- | --- | --- | --- | --- | --- | --- | --- | --- | --- | --- | --- | --- | --- |
| 86% | 15 µM | – | COc1cc2c(cc1OC)OC(C)(C)CC2 [compound 5] | – | – | – | 17% | inactive | – | – | – | remains constant; also recorded: anti-oxidant efficiency more metabolic-dependent | – | – |
| 87% | 0.3 µM | 1.9 µM | COc1cc2c(cc1O)CCC(C)(C)O2 [compound 6] | – | – | – | – | potent inhibiting effect; also recorded: the greatest inhibiting power | six times smaller | – | – | – | an order of magnitude greater than that of the compound 7 | superior to that of the BHT; also recorded: an order of magnitude greater than that of the compound 7 |
| 88% | 3.4 µM | 19 µM | COc1cc2c(cc1O)OC(C)(C)CC2 [compound 7] | – | – | – | – | potent inhibiting effect | six times smaller | – | – | – | – | – |
| 90% | 6 µM | – | COc1cc2c(cc1OCC(F)(F)F)OC(C)(C)CC2 [compound 8] | – | – | – | 5% | does not present inhibiting activity per se | – | – | – | slightly higher during the second hour of incubation; also recorded: significant drop in the inhibiting activity during the third hour; also recorded: not significant when it is compared with the percentage of inhibition determined for the first hour of incubation (P>0.005); also recorded: anti-oxidant efficiency more metabolic-dependent | nine times greater than that corresponding to chromene 3 | – |
| 83% | 3.9 µM | 5.3 µM | CC1(C)CCc2cc(O)c(OCC(F)(F)F)cc2O1 [compound 9] | – | – | – | – | – | – | – | the highest inhibiting activity of the chroman fluorates tested | decreases during the second and the third hour of incubation; also recorded: less pronounced than that obtained for the compound 6; also recorded: more persistent intrinsic activity | – | slightly inferior to that shown by hydroxychroman 6 |
